Measured values as given in ChEMBL document CHEMBL5338704, “Discovery of novel phenylhydrazone-based oxindole-thiolazoles as potent antibacterial agents toward Pseudomonas aeruginosa” (Eur J Med Chem, 2022).
Converted amounts (≈) assume the structure as drawn.

What was measured:
Escherichia coli [1] = test: Antibacterial activity against Escherichia coli assessed as inhibition of bacterial growth by micro-broth dilution assay; assay type: functional
Escherichia coli [2] = test: Antibacterial activity against Escherichia coli ATCC 25922 assessed as inhibition of bacterial growth by micro-broth dilution assay; assay type: functional
Acinetobacter baumannii [3] = test: Antibacterial activity against Acinetobacter baumannii assessed as inhibition of bacterial growth by micro-broth dilution assay; assay type: functional
Staphylococcus aureus [4] = test: Antibacterial activity against Staphylococcus aureus assessed as inhibition of bacterial growth by micro-broth dilution assay; assay type: functional
Staphylococcus aureus [5] = test: Antibacterial activity against Staphylococcus aureus ATCC 29213 assessed as inhibition of bacterial growth by micro-broth dilution assay; assay type: functional
Staphylococcus aureus [6] = test: Antibacterial activity against methicillin resistant Staphylococcus aureus assessed as inhibition of bacterial growth by micro-broth dilution assay; assay type: functional
Pseudomonas aeruginosa [7] = test: Antibacterial activity against Pseudomonas aeruginosa assessed as inhibition of bacterial growth by micro-broth dilution assay; assay type: functional
Pseudomonas aeruginosa [8] = test: Antibacterial activity against Pseudomonas aeruginosa ATCC 27853 assessed as inhibition of bacterial growth by micro-broth dilution assay; assay type: functional
[9] = Hemolytic activity in RBC (unknown origin) assessed as hemolysis; assay type: toxicity, cell-based, Erythrocyte; settings: red blood cells (erythrocytes)
Klebsiella pneumoniae = test: Antibacterial activity against Klebsiella pneumoniae assessed as inhibition of bacterial growth by micro-broth dilution assay; assay type: functional
Staphylococcus aureus [10] = test: Antibacterial activity against Staphylococcus aureus ATCC 25923 assessed as inhibition of bacterial growth by micro-broth dilution assay; assay type: functional
Enterococcus faecalis = test: Antibacterial activity against Enterococcus faecalis assessed as inhibition of bacterial growth by micro-broth dilution assay; assay type: functional
Acinetobacter baumannii [11] = test: Potency index, ratio of norfloxacin MIC to test compound MIC for antibacterial activity against Acinetobacter baumannii assessed as inhibition of bacterial growth by micro-broth dilution assay; assay type: functional

Row | SMILES | MIC (Escherichia coli [1]) [µg/mL] | MIC (Escherichia coli [2]) [µg/mL] | MIC (Acinetobacter baumannii [3]) [µg/mL] | MIC (Staphylococcus aureus [4]) [µg/mL] | MIC (Staphylococcus aureus [5]) [µg/mL] | MIC (Staphylococcus aureus [6]) [µg/mL] | MIC (Pseudomonas aeruginosa [7]) [µg/mL] | MIC (Pseudomonas aeruginosa [8]) [µg/mL] | HC50 [9] [µg/mL] | MIC (Klebsiella pneumoniae) [µg/mL] | MIC (Staphylococcus aureus [10]) [µg/mL] | MIC (Enterococcus faecalis) [µg/mL] | Ratio (Acinetobacter baumannii [11])
1 | Cn1ccnc1SCC(O)CN1C(=O)C(=O)c2ccccc21 (stereo not given) | 128 (≈ 403 µM) | 64 (≈ 202 µM) | 64 (≈ 202 µM) | 64 (≈ 202 µM) | 64 (≈ 202 µM) | 128 (≈ 403 µM) | 64 (≈ 202 µM) | 64 (≈ 202 µM) | > 512 | 64 (≈ 202 µM) | 32 (≈ 101 µM) | 128 (≈ 403 µM) | 
2 | Cn1ccnc1SCC(O)CN1C(=O)/C(=N\Nc2ccc([N+](=O)[O-])cc2)c2ccccc21 (stereo not given) | 32 (≈ 70.7 µM) | 128 (≈ 283 µM) | 64 (≈ 141 µM) | 128 (≈ 283 µM) | 128 (≈ 283 µM) | 64 (≈ 141 µM) | 256 (≈ 566 µM) | 16 (≈ 35.4 µM) | > 512 | 32 (≈ 70.7 µM) | 64 (≈ 141 µM) | 128 (≈ 283 µM) | 
3 | Cc1ccc(N/N=C2\C(=O)N(CC(O)CSc3nnnn3C)c3ccccc32)cc1 (stereo not given) | 32 (≈ 75.6 µM) | 64 (≈ 151 µM) | 2 (≈ 4.72 µM) | 2 (≈ 4.72 µM) | 16 (≈ 37.8 µM) | 8 (≈ 18.9 µM) | 2 (≈ 4.72 µM) | 4 (≈ 9.45 µM) | 383 | 16 (≈ 37.8 µM) | 4 (≈ 9.45 µM) | 8 (≈ 18.9 µM) | 2
4 | O=C1/C(=N\Nc2ccc(Cl)cc2)c2ccccc2N1CC(O)CSc1nc[nH]n1 (stereo not given) | 16 (≈ 37.3 µM) | 8 (≈ 18.7 µM) | 128 (≈ 298 µM) | 32 (≈ 74.6 µM) | 8 (≈ 18.7 µM) | 16 (≈ 37.3 µM) | 16 (≈ 37.3 µM) | 32 (≈ 74.6 µM) | 350 | 4 (≈ 9.33 µM) | 16 (≈ 37.3 µM) | 4 (≈ 9.33 µM) | 
5 | O=C1/C(=N\Nc2ccccc2)c2ccccc2N1CC(O)CSc1nc[nH]n1 (stereo not given) | 128 (≈ 324 µM) | 64 (≈ 162 µM) | 128 (≈ 324 µM) | 32 (≈ 81.1 µM) | 128 (≈ 324 µM) | 128 (≈ 324 µM) | 16 (≈ 40.6 µM) | 128 (≈ 324 µM) | 375 | 128 (≈ 324 µM) | 16 (≈ 40.6 µM) | 32 (≈ 81.1 µM) | 
6 | Cn1nnnc1SCC(O)CN1C(=O)/C(=N\Nc2ccc(Cl)cc2)c2ccccc21 (stereo not given) | 16 (≈ 36 µM) | 4 (≈ 9.01 µM) | 1 (≈ 2.25 µM) | 32 (≈ 72.1 µM) | 256 (≈ 577 µM) | 16 (≈ 36 µM) | 16 (≈ 36 µM) | 32 (≈ 72.1 µM) | > 512 | 2 (≈ 4.51 µM) | 32 (≈ 72.1 µM) | 64 (≈ 144 µM) | 2
7 | Cn1nnnc1SCC(O)CN1C(=O)/C(=N\Nc2ccc([N+](=O)[O-])cc2)c2ccccc21 (stereo not given) | 64 (≈ 141 µM) | 16 (≈ 35.2 µM) | 64 (≈ 141 µM) | 64 (≈ 141 µM) | 16 (≈ 35.2 µM) | 8 (≈ 17.6 µM) | 2 (≈ 4.4 µM) | 4 (≈ 8.8 µM) | 262 | 16 (≈ 35.2 µM) | 4 (≈ 8.8 µM) | 8 (≈ 17.6 µM) | 
8 | Cc1ccc(N/N=C2\C(=O)N(CC(O)CSc3nccn3C)c3ccccc32)cc1 (stereo not given) | 64 (≈ 152 µM) | 128 (≈ 304 µM) | 128 (≈ 304 µM) | 128 (≈ 304 µM) | 256 (≈ 607 µM) | 256 (≈ 607 µM) | 128 (≈ 304 µM) | 256 (≈ 607 µM) | 358 | 128 (≈ 304 µM) | 128 (≈ 304 µM) | 128 (≈ 304 µM) | 
9 | Cn1nnnc1SCC(O)CN1C(=O)/C(=N\Nc2ccc(C(=O)O)cc2)c2ccccc21 (stereo not given) | 32 (≈ 70.6 µM) | 16 (≈ 35.3 µM) | 32 (≈ 70.6 µM) | 16 (≈ 35.3 µM) | 16 (≈ 35.3 µM) | 4 (≈ 8.82 µM) | 128 (≈ 282 µM) | 32 (≈ 70.6 µM) | 292 | 32 (≈ 70.6 µM) | 16 (≈ 35.3 µM) | 8 (≈ 17.6 µM) | 
